From patent publication US9796711B2, “Substituted pyrazolo[3,4-b]pyridin-6-carboxylic acids and method of use” (AbbVie S.àr.l., priority 2015, dated 2017)

Key:
[1] = target: T1, ΔF508-CFTR (Homo sapiens, UniProt P13569, DEL508-508); experiment: CFTR cell surface levels using HRP-tagged ΔF508-CFTR expressing CFBE cells, in the presence of a co-corrector; assay type: cell-based
T1 construct: host or cells: CFBE41o-, doxycycline-inducible
In short: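 Cells were seeded with 0.5 μg/mL doxycycline and held 68 h at 37 °C. Test compounds plus 3 μM co-corrector (final 0.1% DMSO) were then added for 20 h at 33 °C. Washed cells received HRP substrate, and luminescence was normalized between DMSO and 3 μM co-corrector controls.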

[2] = target: T1, ΔF508-CFTR; experiment: CFTR cell surface levels using HRP-tagged ΔF508-CFTR expressing CFBE cells, intrinsic corrector capacity; assay type: cell-based
In short: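 Here the cells express ΔF508-CFTR with horseradish peroxidase inserted in extracellular loop 4, so only rescued channel at the surface gives luminescent signal. Compounds act on their own, 20 h at the reduced temperature of 33 °C; values are percent activity relative to DMSO and a 3 μM corrector.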

[3] = HRP-tagged ΔF508-CFTR expressing CFBE cells, in the presence of 3 μM co-corrector
[4] = HRP-tagged ΔF508-CFTR expressing CFBE cells, in the presence of 3 μM co-corrector, read-out: EC50
[5] = HRP-tagged ΔF508-CFTR expressing CFBE cells, intrinsic corrector capacity (no co-corrector), 33° C., 20 hours
[6] = HRP-tagged ΔF508-CFTR expressing CFBE cells, intrinsic corrector capacity (no co-corrector), 33° C., 20 hours, read-out: EC50
[7] = HRP-tagged ΔF508-CFTR CFBE41o- cells, compounds alone (intrinsic corrector capacity), 20 hours at 33° C., positive control 3 μM corrector
[8] = HRP-tagged ΔF508-CFTR CFBE41o- cells, compounds alone (intrinsic corrector capacity), 20 hours at 33° C., read-out: EC50

T1 sequence (P13569 with tags, fused parts or gaps DEL508-508): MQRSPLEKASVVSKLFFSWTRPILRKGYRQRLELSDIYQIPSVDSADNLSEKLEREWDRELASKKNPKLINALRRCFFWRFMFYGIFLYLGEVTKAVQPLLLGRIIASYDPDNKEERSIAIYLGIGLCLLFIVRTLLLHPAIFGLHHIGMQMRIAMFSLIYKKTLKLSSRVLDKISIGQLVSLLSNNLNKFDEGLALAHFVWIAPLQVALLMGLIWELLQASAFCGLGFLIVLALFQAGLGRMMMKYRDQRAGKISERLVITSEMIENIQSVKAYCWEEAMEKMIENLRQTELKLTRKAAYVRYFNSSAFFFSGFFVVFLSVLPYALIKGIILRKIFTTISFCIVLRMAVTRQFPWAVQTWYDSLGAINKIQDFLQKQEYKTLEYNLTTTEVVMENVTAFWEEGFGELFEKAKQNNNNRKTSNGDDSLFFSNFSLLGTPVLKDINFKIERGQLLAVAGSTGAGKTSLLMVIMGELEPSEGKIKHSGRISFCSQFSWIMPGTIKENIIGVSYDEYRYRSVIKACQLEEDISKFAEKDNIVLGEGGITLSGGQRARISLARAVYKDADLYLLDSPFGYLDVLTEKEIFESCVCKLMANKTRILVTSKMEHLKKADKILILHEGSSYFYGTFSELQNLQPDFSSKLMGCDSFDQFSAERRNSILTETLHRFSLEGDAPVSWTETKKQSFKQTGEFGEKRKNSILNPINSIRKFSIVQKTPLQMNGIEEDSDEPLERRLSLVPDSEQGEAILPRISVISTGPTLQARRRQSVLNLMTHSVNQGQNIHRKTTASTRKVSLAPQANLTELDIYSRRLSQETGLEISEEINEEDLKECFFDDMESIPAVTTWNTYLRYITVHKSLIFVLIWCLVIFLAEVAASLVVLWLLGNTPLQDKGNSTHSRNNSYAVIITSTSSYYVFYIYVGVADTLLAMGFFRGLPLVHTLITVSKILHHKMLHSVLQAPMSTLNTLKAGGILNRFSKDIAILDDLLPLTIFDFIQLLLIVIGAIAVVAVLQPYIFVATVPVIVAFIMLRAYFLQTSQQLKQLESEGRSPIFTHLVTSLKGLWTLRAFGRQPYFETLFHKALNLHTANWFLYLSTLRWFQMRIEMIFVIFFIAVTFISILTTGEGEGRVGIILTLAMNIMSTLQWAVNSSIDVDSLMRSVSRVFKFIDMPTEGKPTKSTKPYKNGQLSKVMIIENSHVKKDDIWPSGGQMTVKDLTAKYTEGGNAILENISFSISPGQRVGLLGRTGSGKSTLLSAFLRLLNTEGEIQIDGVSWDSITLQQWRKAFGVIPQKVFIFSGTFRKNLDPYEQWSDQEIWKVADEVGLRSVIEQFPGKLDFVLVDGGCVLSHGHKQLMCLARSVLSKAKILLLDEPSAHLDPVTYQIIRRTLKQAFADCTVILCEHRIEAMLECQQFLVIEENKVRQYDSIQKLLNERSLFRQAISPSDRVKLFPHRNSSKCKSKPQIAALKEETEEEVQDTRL

Row | Structure (SMILES) | % Activation [1, 3] [%] | EC50 [1, 4] [nM] | % Activation [2, 5] [%] | EC50 [2, 6] [nM] | % Activation [2, 7] [%] | EC50 [2, 8] [nM] | EC50 [1] [nM] | EC50 [2] [nM]
1 | O=C(O)c1cc(N2C[C@@H](F)C[C@H]2CO)c2c(C3CCC3)nn(-c3ccccc3)c2n1 [compound 507, 3-cyclobutyl-4-[(2S,4S)-4-fluoro-2-(hydroxymethyl)pyrrolidin-1-yl]-1-phenyl-1H-pyrazolo[3,4-b]pyridine-6-carboxylic acid] | 218.3 | 2520 | 132.8 | 2170 |  |  |  | 
2 | O=C(O)c1cc(OCC2CCC(F)(F)CC2)c2c(C3CCC3)nn(-c3ccccc3)c2n1 [compound 616, 3-cyclobutyl-4-[(4,4-difluorocyclohexyl)methoxy]-1-phenyl-1H-pyrazolo[3,4-b]pyridine-6-carboxylic acid] | 389.95 | 83.3 | 144.2 | 116 |  |  |  | 
3 | CC(C)c1nn(-c2cccc(N(C)C)c2)c2nc(C(=O)O)cc(-c3ccc(N4CCOCC4)nc3)c12 [compound 85, 1-[3-(dimethylamino)phenyl]-4-[6-(morpholin-4-yl)pyridin-3-yl]-3-(propan-2-yl)-1H-pyrazolo[3,4-b]pyridine-6-carboxylic acid] | 504.7 | 702 |  |  | 314.6 | 920 |  | 
4 | CN(C)[C@H]1C[C@@H](Oc2cc(C(=O)O)nc3c2c(C2CCC2)nn3-c2ccccc2)C1 [compound 492, 3-cyclobutyl-4-{[cis-3-(dimethylamino)cyclobutyl]oxy}-1-phenyl-1H-pyrazolo[3,4-b]pyridine-6-carboxylic acid] | 239.55 | 2510 | 84.2 | 2370 |  |  |  | 
5 | Cc1nn(-c2ccccc2)c2nc(C(=O)O)cc(O[C@@H]3CCN(C)C3)c12 [compound 338, 3-methyl-4-{[(3R)-1-methylpyrrolidin-3-yl]oxy}-1-phenyl-1H-pyrazolo[3,4-b]pyridine-6-carboxylic acid] | 135.7 | 7500 |  |  | 12.64 | 7500 |  | 
6 | CC(C)c1nn(-c2cccc(N3CCCC3)c2)c2nc(C(=O)O)cc(-c3ccc(N4CCC(C#N)CC4)cc3)c12 [compound 221, 4-[4-(4-cyanopiperidin-1-yl)phenyl]-3-(propan-2-yl)-1-[3-(pyrrolidin-1-yl)phenyl]-1H-pyrazolo[3,4-b]pyridine-6-carboxylic acid] | 645.97 | 283 |  |  | 429 | 315 |  | 
7 | Cc1nn(-c2ccc(F)cc2F)c2nc(C(=O)O)cc(-c3ccc(N4CCOCC4)cc3)c12 [compound 105, 1-(2,4-difluorophenyl)-3-methyl-4-[4-(morpholin-4-yl)phenyl]-1H-pyrazolo[3,4-b]pyridine-6-carboxylic acid] | 383.25 | 879 |  |  | 179.05 | 949 |  | 
8 | CC1(O)CN(c2cc(C(=O)O)nc3c2c(C2CCC2)nn3-c2ccccc2)C1 [compound 536, 3-cyclobutyl-4-(3-hydroxy-3-methylazetidin-1-yl)-1-phenyl-1H-pyrazolo[3,4-b]pyridine-6-carboxylic acid] | 209.35 | 2470 | 49.72 | 3330 |  |  |  | 
9 | CC(C)c1nn(-c2cccc(F)c2)c2nc(C(=O)O)cc(-c3ccc(N(C)C4CCOCC4)nc3)c12 [compound 283, 1-(3-fluorophenyl)-4-{6-[methyl(oxan-4-yl)amino]pyridin-3-yl}-3-(propan-2-yl)-1H-pyrazolo[3,4-b]pyridine-6-carboxylic acid] | 435.2 | 367 |  |  | 233.17 | 649 |  | 
10 | CCN1CCN(c2cc(C(=O)O)nc3c2c(C(C)C)nn3-c2ccc(F)cc2)CC1 [compound 772, 4-(4-ethylpiperazin-1-yl)-1-(4-fluorophenyl)-3-(propan-2-yl)-1H-pyrazolo[3,4-b]pyridine-6-carboxylic acid] | 226.6 | 1360 | 53.82 | 1670 |  |  |  | 
11 | O=C(O)c1cc(N2CCC(N3CCCC3)CC2)c2c(C3CCC3)nn(-c3ccccc3)c2n1 [compound 443, 3-cyclobutyl-1-phenyl-4-[4-(pyrrolidin-1-yl)piperidin-1-yl]-1H-pyrazolo[3,4-b]pyridine-6-carboxylic acid] | 317.25 | 1470 | 146.9 | 2300 |  |  |  | 
12 | Cc1nn(-c2ccccc2)c2nc(C(=O)O)cc(N3CCC4(CCNC4=O)C3)c12 (centres unmarked) [compound 313, 3-methyl-4-(6-oxo-2,7-diazaspiro[4.4]nonan-2-yl)-1-phenyl-1H-pyrazolo[3,4-b]pyridine-6-carboxylic acid] | 132.2 | 7500 |  |  | 11.239 | 7500 |  | 
13 | CC(C)c1nn(-c2cccc(F)c2)c2nc(C(=O)O)cc(-c3ccc(N(C)C4CCOCC4)cc3)c12 [compound 284, 1-(3-fluorophenyl)-4-{4-[nethyl(oxan-4-yl)amino]phenyl}-3-(propan-2-yl)-1H-pyrazolo[3,4-b]pyridine-6-carboxylic acid] | 435.23 | 282 |  |  | 240.8 | 501 |  | 
14 | Cc1nn(-c2ccccc2)c2nc(C(=O)O)cc(N3CCCOCC3)c12 [compound 315, 3-methyl-4-(1,4-oxazepan-4-yl)-1-phenyl-1H-pyrazolo[3,4-b]pyridine-6-carboxylic acid] | 150.3 | 4170 |  |  | 24.61 | 3430 |  | 
15 | N#CC1CCN(c2ccc(-c3cc(C(=O)O)nc4c3c(C3CCC3)nn4-c3ccnc(N4CCOCC4)c3)cn2)CC1 [compound 416, 4-[6-(4-cyanopiperidin-1-yl)pyridin-3-yl]-3-cyclobutyl-1-[2-(morpholin-4-yl)pyridin-4-yl]-1H-pyrazolo[3,4-b]pyridine-6-carboxylic acid] | 369.5 | 785 | 179.1 | 1250 |  |  |  | 
16 | CC(C)c1nn(-c2cccc(N(C)C)c2)c2nc(C(=O)O)cc(N3CCC(C(F)(F)F)C3)c12 (centres unmarked) [compound 270, 1-[3-(dimethylamino)phenyl]-3-(propan-2-yl)-4-[3-(trifluoromethyl)pyrrolidin-1-yl]-1H-pyrazolo[3,4-b]pyridine-6-carboxylic acid] | 430.4 | 529 |  |  | 236.02 | 698 |  | 
17 | CC(=O)NC1CCN(c2ccc(-c3cc(C(=O)O)nc4c3c(C)nn4-c3ccccc3)cc2)C1 (centres unmarked) [compound 156, 4-[4-(3-acetamidopyrrolidin-1-yl)phenyl]-3-methyl-1-phenyl-1H-pyrazolo[3,4-b]pyridine-6-carboxylic acid] | 411.55 | 3160 |  |  | 175.5 | 3340 |  | 
18 | COCCN1CCN(c2cc(C(=O)O)nc3c2c(C2CCC2)nn3-c2ccccc2)CC1 [compound 571, 3-cyclobutyl-4-[4-(2-methoxyethyl)piperazin-1-yl]-1-phenyl-1H-pyrazolo[3,4-b]pyridine-6-carboxylic acid] | 334.05 |  | 189.6 |  |  |  | 328 | 812
19 | O=C(O)c1cc(N2CCN(CCCO)CC2)c2c(C3CCC3)nn(-c3ccccc3)c2n1 [compound 471, 3-cyclobutyl-4-[4-(3-hydroxypropyl)piperazin-1-yl]-1-phenyl-1H-pyrazolo[3 ,4-b]pyridine-6-carboxylic acid] | 259.9 | 2990 | 106.45 | 3340 |  |  |  | 
20 | CN(C)c1ncc(-c2cc(C(=O)O)nc3c2c(C(C)(C)C)nn3C2CCCC2)cn1 [compound 91, 3-tert-butyl-1-cyclopentyl-4-[2-(dimethylamino)pyrimidin-5-yl]-1H-pyrazolo[3,4-b]pyridine-6-carboxylic acid] | 176.6 | 3340 |  |  | 43.54 | 3340 |  | 
21 | O=C(O)c1cc(-c2ccc(N3CCOCC3)cc2)c2c(C3CCCO3)nn(-c3ccccc3)c2n1 (centres unmarked) [compound 186, 4-[4-(morpholin-4-yl)phenyl]-3-(oxolan-2-yl)-1-phenyl-1H-pyrazolo[3,4-b]pyridine-6-carboxylic acid] | 378.4 | 1260 |  |  | 168.7 | 1870 |  | 
22 | Cc1cc(N2CCN(c3cc(C(=O)O)nc4c3c(C3CCC3)nn4C3CCCCC3)CC2)ccn1 [compound 864, 3-cyclobutyl-1-cyclohexyl-4-[4-(2-methylpyridin-4-yl)piperazin-1-yl]-1H-pyrazolo[3,4-b]pyridine-6-carboxylic acid] | 458.6 | 105 | 337.7 | 1010 |  |  |  | 
23 | O=C(O)c1cc(O[C@@H]2CCOC2)c2c(C3CCC3)nn(-c3ccccc3)c2n1 [compound 582, 3-cyclobutyl-4-{[(3R)-oxolan-3-yl]oxy}-1-phenyl-1H-pyrazolo[3,4-b]pyridine-6-carboxylic acid] | 307.5 | 614 | 92.03 | 903 |  |  |  | 
